Laboratory results: US9781933B2, “Tetrazolinone compound and use thereof” (Sumitomo Chemical Company, Limited, priority 2013, dated 2017)

Test system: wheat rust fungus (Puccinia recondita)
Assay: Comparative Test Example: wheat rust control at 50 ppm
Format: in vivo
Conditions: 50 ppm foliar spray; wheat (SHIROGANE); inoculated 5 days after spraying
Procedure: After spraying, the plant was air-dried so as to dry the dilution on the surface of the leaves. […] After the inoculation, the plant was placed at 23° C. for one day under dark and high humidity condition, and cultivated, under illumination at 20° C. for 8 days, and then the area of lesion was investigated.

| SMILES | area of lesion relative to that on an untreated plant [%] |
| --- | --- |
| Cn1nnn(-c2ccccc2COc2ccn(-c3ccc(F)cc3)n2)c1=O [control compound, 1-(2-{[1-(4-fluorophenyl)-1H-pyrazol-3-yl]oxymethyl}-phenyl)-4-methyl-1,4-dihydrotetrazol-5-one] | ≥ 70 |
| Cc1cccc(-n2nnn(C)c2=O)c1COc1ccn(-c2ccc(F)cn2)n1 [compound 40] | ≤ 30 |
